This note sets out measurements from US10829506B2, “Amino- or ammonium-containing sulfonic acid, phosphonic acid and carboxylic acid derivatives and their medical use” (GRI Bio, Inc., priority 2011, dated 2020).

What is called IC50 is the concentration at which inhibition is half-maximal.

For series [1], the system named is RBL-2H3 cells. In words: Inhibition of mast cell degranulation (β-hexosaminidase release). It is filed as cell-based, rat. The note with it: RBL-2H3 cells sensitized with anti-DNP IgE, triggered with DNP-HSA, 1 h preincubation. The source says:
Mast cells are key effector cells involved in allergic and inflammatory diseases, and the Rat Basophilic Leukemia clone 2H3 (RBL-2H3) cell line is a commonly used model of allergen dependent immune modulator release (degranulation) in mast cells. On their surface, they express the high affinity receptor for IgE (FcεRI). Upon binding of antigen-specific IgE to the receptor, cells become sensitized to the IgE specific antigen (allergen). When IgE-sensitized cells then encounter multivalent antigen, the antigen clusters IgE-FcεRI complexes and initiates a signal transduction cascade that leads to degranulation, that is, the release of inflammatory mediators, such as cytokines, eicosanoids, histamine and enzymes. The assay can be used as a screening method to identify immune-modulating compounds, in particular compounds useful in the medical management of allergic and inflammatory diseases and asthma, β-hexosaminidase was previously shown to be released with the same kinetics as histamine (Schwartz et al., J Immunology; 123:1445-1450 (1979)), thus offering a simple means to monitor degranulation. The RBL-2H3 cell line has been successfully used to identify compounds with anti-allergic activity (Choo et al. Planta Med., 69:518-522 (2003)).
Cell Culture: RBL-2H3 cells obtained from the German Collection of Microorganisms and Cell Cultures (ACC312) (Braunschweig, Germany) were maintained in 70% Minimum Essential Medium with Earle's Salts, 20% RPMI 1640 Medium, 10% FBS and 2 mM l-glutamine in 95% air/5% CO2 at 37° C. and routinely checked for mycoplasma contamination. Cells were passaged every 3-4 days; after washing cells once with 35 ml PBS cells were incubated 8 min with 5 ml 0.05% Trypsin-EDTA solution at 37° C. Cells were removed from the incubator, 15 ml culture medium was added and cells were resuspended by repeated pipetting.
Cell seeding: cells were harvested with Trypsin-EDTA as described and 50-100 μl cell suspension seeded Into Costar CellBind 24 well cluster plates (no. 3337). Plates were kept for 30 min at RT under the sterile hood before being transferred to the incubator. Cells were used within one or two days after seeding.
For sensitization, cells for immediate use were sensitized 6-12 h after plating; cells to be used the following day were sensitized 26-38 h after plating. Culture plates were removed from the incubator and checked for cell growth and contamination. The medium was discarded and cells were sensitized with anti-DNP IgE (0.4 μg/ml) in 0.4 ml culture medium overnight. Following overnight sensitization, cells were washed with 0.8 ml pre-warmed TyB and 0.38 ml test compound or vehicle control (supplemented or not with 1% FBS) were added to duplicate wells. Samples were adjusted to contain 1% vehicle for test compounds dissolved in organic solvents. Cells were incubated for 1 h at 37° C. At the end of the incubation period, cells were routinely stimulated with 20 μl DNP-HSA (2 μg/ml; final concentration 0.1 μg/ml) diluted in TyB and cells were incubated for 15 min at 37° C. Alternatively, cells were stimulated with 20 μl […] (final concentration 0.25 μM) or 20 nM […] (final concentration 0.25 μM), both in the absence or presence of 20 nM PMA (final concentration).
Plates were removed from the incubator and immediately centrifuged at 4° C. for 5 min at 250×g and transferred to an ice bath. Aliquots of supernatants, 25 μl, were transferred to 96-well plates. Remaining supernatant was aspirated from control wells and cells were lysed in […] lysis buffer for 5 min at RT on an orbital shaker at 450 rpm under non-sterile conditions. After lysis, 25 μl aliquots of lysates were transferred to 96-well plates.
MUG substrate solution, 100 μl, were added to supernatant and lysate samples and plates were incubated 30 min at 37° C. The reaction was terminated by addition of 150 μl stop solution. Fluorescence was measured at 365 nm excitation and 440 nm emission wavelengths. […]

Series [2] deals with RBL-2H3 cells. In words: Maximum tolerated concentration (cytotoxicity by lactate dehydrogenase release). It is filed as cell-based, rat. The source says:
A commercially available cytotoxicity test was used (Promega Cytotox-One cat. #67891).
The safety index (SI) of a test compound Is the ratio between the maximum tolerated concentration and the 1C50 and is used as a measure of the relative safety of the test compound.

A further series concerns phospho-Akt Ser473. In words: Inhibition of Akt phosphorylation on Ser473 in IgE sensitized, antigen stimulated RBL-2H3 cells. The series is classed as cell-based, rat. The note with it: normalized to total Akt, IgE and antigen for 15 min. From the text:
The mast cell degranulation assay using the RBL-2H3 cell line (see Example 27) was also used to determine the status of the PI3K/Akt axis. Activation of PI3K leads to production of PIP3 on the cytosolic side of the lipid bilayer. Akt is recruited to the PIP3 domain and subsequently activated by phosphorylation on residues Ser473 and Thr308. (Franke et al., Cell 81:727-736, (1995)). Once recruited to the membrane, it is phosphorylated and activated by other kinases (Hemmings, Science 275:628-630 (1997); Hemmings. Science 276:534 (1997); Downward, Science 279:673-674 (1998); Alessi et al., EMBO J. 15:6541-6551 (1996)). Western blotting of the phosphorylated Ser473 residue on Akt (phospho-Akt Ser473) is widely used to assess the level of activation of the PI3K/Akt axis.
All buffers and solutions used for the phosphor-Akt Ser473 assay were from Meso Scale Discovery. Tris Lysis Buffer consisted of 150 mM NaCl, 20 mM Tris, pH 7.5, 1 mM EDTA, 1 mM EGTA and 1% Triton-X-100. Complete Tris Lysis Buffer was prepared prior to use by addition of protease inhibitor, phosphatase inhibitors and PMSF. The 10x Tris Wash Buffer consisted of 500 mM Tris, pH 7.5, 1.5 M NaCl and 0.2% Tween-20. Blocker A was made up of bovine serum albumin in Tris Wash Buffer. Read Buffer T was used according to manufacturer's instructions. The Whole Cell Lysate Kits used were phospho-Akt Ser473 (K11100D. Lot K0011749) and total ERK½ (K11107D, Lot K0011698) as a loading control.
Protein assay: protein concentration was determined using the BCA (bicinchoninic acid) Protein Assay kit according to the manufacturer's instructions, Briefly, duplicate 10 μl samples of bovine serum albumin (BSA) standards, blank and lysates were incubated in a 96-well plate with 0.2 ml working reagent for 30 min at 37° C. Plates cooled to room temperature for 5 min and absorbance at 562 nm measured in a multi-mode plate reader. Protein concentrations were calculated using FlexStation 3 software (SoftMax Pro version 5.3). Protein concentration of lysates was determined from a standard curve (BSA) using a linear curve fit.
Phosphoprotein assay: protein phosphorylation was determined using the MULTI-SPOT® Assay System (Meso Scale Discovery), providing simultaneous detection of phosphorylated and total proteins. Briefly, capture antibodies against phosphorylated and total protein are patterned on distinct spots in the same well of 96-well plates. Sandwich immunoassay and electrochemiluminescence detection technology are combined to measure intensity of the emitted light from phosphorylated and total protein spots. For analysis of phosphor-Akt Ser473 was performed according to the manufacturer's instructions. The optimal amount of protein was determined at 5 μg lysate per well for ERK½ and 10 μg/well for phospho-Akt Ser473. Plates were blocked with 25 μl/well Blocker A for 1 h at room temperature with gentle agitation. During this time, the lysates were thawed and diluted to the desired protein concentration in complete Tris Lysis Buffer. Plates were washed four times in Tris Wash Buffer and 25 μl lysate per well added. Plates were incubated for 1-3 h at room temperature with agitation according to the manufacturer's recommendations. Plates were washed four times with Tris Wash Buffer, followed by addition of 25 μl/well of the respective detection antibody and incubation for 1 h at room temperature, with agitation. After a final four washes with Tris Wash Buffer 150 μl/well, Read Buffer T was added, and plates read on a SECTOR Imager 6000 plate reader.
The mean background signal from each plate was subtracted from averaged raw data. The amount of total protein phosphorylaled was expressed as % phosphoprotein according to the manufacturer's (Meso Scale Discovery) Instructions.
Levels of phospho-Akt Ser473 were determined in IgE sensitized and antigen stimulated cells after treatment without (positive control) or with 1, 5 and 25 μM test compound and normalized to levels of total Akt.

In the next series the test system is BALB/cJW mice. In words: Delayed-type hypersensitivity (DTH) reaction, mouse ear swelling. It is filed as in vivo. Particulars: oral; 1a 100 mg/kg (loading dose, then maintenance doses), dexamethasone 1.0 mg/kg once daily; 24 h after ovalbumin challenge. The procedure:
The anti-inflammatory and anti-allergic effects of compound 1a was assessed in a mouse model of skin delayed-type hypersensitivity (DTH) reactions and compared to a vehicle control and to the reference drug dexamethasone. DTH reactions are antigen-specific cell-mediated immune responses, driven primarily by T helper type 1 (Th1) cells, similar to the tuberculin immunization response. The immune reaction induced by an ovalbumin challenge to animals previously sensitized with ovalbumin in Complete Freund's Adjuvant, is characterized by swelling (edema) at the site of challenge, e.g. the mouse ear. Dexamethasone, an anti-inflammatory steroid, reduces cell-mediated immune responses and was employed to validate the responsiveness of the assay to pharmacological treatment.
Female BALB/cJW mice were bred at the University of Lodz, Lodz, Poland and housed in groups of 8 in makrolon cages with a 12 h light-dark cycle. Mice were given free access to food (Agropol S. j., Motycz, Poland) and water.
Group size was n=8 mice unless otherwise stated. Test compound was freshly prepared before administration.
Sensitization: The protein antigen, ovalbumin, was reconstituted in PBS at 4 mg/ml. […] The emulsion was tested by putting a drop of emulsion onto PBS; if the emulsion remained as a light droplet on the PBS, the emulsion was deemed ready. […]
Challenge: On the sixth day after sensitization, DTH was elicited by challenging animals subcutaneously (gauge 30 needle, B. Braun Melsungen, Melsungen, Germany) in the left ears with 10 μL of a 1% suspension of heat-aggregated ovalbumin (HOVA) (100 μg ovalbumin per mouse). […] Ear thickness was measured with a precise spring-loaded caliper (Art. No, 7309, Mltutoyo, Kawasaki, Japan) before challenge, and 24 h after challenge. […]
To account for individual variability, the increase in right ear thickness, before and 24 h after administration of PBS, was subtracted from the HOVA-induced increase in left ear thickness. The increase in ear thickness was calculated by the difference between ear thickness before and 24 h after antigen challenge. […]

Series [3] in a line: Body weight and toxic side-effects in the DTH study. The series is classed as in vivo, mice. Particulars: oral 1 mg/kg once daily. As for the experimental part:
Three hours after the last dose, the antigen challenge was performed on the ears as described above. Dexamethasone was given at 1 mg/kg orally by gavage 3 h before sensitization and once daily with the final dose given 3 h prior to antigen challenge (a total of 7 administrations). All administrations were given in a volume of 10 mL/kg.
Such high dosing (overdose) is, however, not suitable for treatment of humans due to severe side effects of the corticosteroid and was only used to validate the responsiveness of the model.

Take `CCCCCCCCCCCCCC[N+](C)(C)CCCP(=O)([O-])O` [Compound 1c, 3-N,N-Dimethylmyristylammoniopropylphosphonic Acid]: the IC50 in the series with RBL-2H3 cells [1] is 2800 nM. Further, the “MTC (maximum tolerated concentration)” value in the series on RBL-2H3 cells [2] (highest concentration not causing cytotoxicity, LDH release) was determined as 200 µM. Moreover, the “SI (safety index, ratio MTC/IC50)” value in the series with RBL-2H3 cells [2] (ratio between maximum tolerated concentration and IC50) came to 71.4. Also, the “Level of phospho-Akt Ser473” value came out at 83.2 ± 17.3 % positive control in the series on phospho-Akt Ser473 (1 μM), 11.7 ± 7.7 % positive control in the series with phospho-Akt Ser473 (5 μM) and 2.2 ± 1.4 % positive control in the series on phospho-Akt Ser473 (25 μM).
As for `C[C@@H]1C[C@H]2[C@@H]3CCC4=CC(=O)C=C[C@]4(C)[C@@]3(F)[C@@H](O)C[C@]2(C)[C@@]1(O)C(=O)CO` [Dexamethasone, reference compound], the “Inhibition of mouse ear swelling (DTH response)” value with BALB/cJW mice amounted to 49%. Further, the “Loss in body weight” value in series [3] stood at 4.4%.
